From patent publication US5446157A, “Boron difluoride compounds useful in photodynamic therapy and production of laser light” (priority 1993, dated 1995)
Where two headings read alike, the source gives them in different places.

What was measured:
[1] = Ref [2], cited from earlier work
[2] = cited from earlier work
[3] = Fluorescence (λf, quantum yield); assay type: physicochemical; conditions: for λf: 2 × 10^-4 M in ethanol; for .PHI.f (fluorescence quantum yield): ethanol, excitation 450 and 460 nm, reference acridine orange
Procedure: Instruments for spectroscopic measurements included: Perkin-Elmer 1600 FTIR, Varian Gernini 300 NMR, Hewlett-Packard 5985 (70 eV) GC-MS, Cary 17 (UV), and Perkin-Elmer LS-5B Luminescence spectrometer. A dye laser was constructed and operated in the non-flowing (static) mode and had no tuning capability. […] Laser energy outputs were measured with an accuracy of ±5% by a Scientech 365 power and energy meter.
(§1) Light absorption, luminescence, and laser activity properties for the dyes 7 are described in Table VI. Each recorded UV absorption was restricted to the highest wave length. Fluorescence quantum yields of the dyes were determined for ethanol solutions with excitation at 450 and 460 nm by reference to acridine orange, .PHI.0.46, in ethanol; for the dye 7p the reference was R-6G, <P 0.90. Melting points were obtained from a Mel-Temp II device and were uncorrected. The solvent for ^1 H NMR spectra was chloroform-d with tetramethylsilane as an internal standard. Elemental analyses were obtained from Midwest Micro Lab, Indianapolis, Ind. and Galbraith Laboratories, Inc., Knoxville, Tenn. Solvents were removed by rotary evaporation under reduced pressure unless indicated otherwise. Column chromatography was performed on silica gel. Molecular weights were confirmed by EI-MS for the pyrrole 4j 193 and for laser dyes 7d 346, 7e 374, 7g 374, 7i 342, 7j 314 and 7x 360. IR absorption data satisfactorily supported structure assignments for the laser dyes 7.
^[b] 2 × 10^-4 M in ethanol except where noted otherwise.

[4] = UV light absorption (λmax, log ε); assay type: physicochemical; conditions: for λmax: 5 × 10^-6 M in ethanol; for absorption shift: in comparison with 8-substituted peralkylated structures (7b, g, k); for log ε: solvent as for λmax (ethanol except where noted)
Procedure: as §1, with “Each” for “Light absorption, luminescence, and laser activity properties for the dyes 7 are described in Table VI. Each”, “0.90. […]” for “0.90.”, “gel.” for “gel. Molecular weights were confirmed by EI-MS for the pyrrole 4j 193 and for laser dyes 7d 346, 7e 374, 7g 374, 7i 342, 7j 314 and 7x 360. IR absorption data satisfactorily supported structure assignments for the laser dyes 7.”
5 × 10^-6 M in ethanol except where noted otherwise.

[5] = Laser characteristics of pyrromethene-BF2 complexes under flashlamp excitation (Table IV)

Row | SMILES | fluorescence [3] | λf [3] [nm] | .PHI.f (fluorescence quantum yield) [3] | λmax [4] [nm] | absorption shift [4] | log ε [4] | other results
1 | CC1=C(C)C(C)=[N+]2C1=C(C)c1c(C)c(C)c(C)n1[B-]2(F)F [Compound 7b] |  |  |  |  |  |  | λmax ([1]; 5 × 10^-6 M in ethanol): 518 nm; log ε [1]: 4.67; λf ([2]; 2 × 10^-4 M in ethanol, Ref [2]): 546 nm; .PHI.f ([2]; Ref [2]): 0.70
2 | CC1=C(C(C)(C)C)C(C)=[N+]2C1=Cc1c(C)c(C(C)(C)C)c(C)n1[B-]2(F)F [Compound 7x, 1,3,5,7-tetramethyl-2,6-di-tert-butylpyrromethene-BF2 complex] | erratic effect on fluorescence | 554 | 0.84 | 527 | slight bathochromic shift in absorption | 4.93 | 
3 | CCC1=C(CC)C(C)=[N+]2C1=Cc1c(CC)c(CC)c(C)n1[B-]2(F)F [Compound 7y, 1,2,6,7-tetraethyl-3,5-dimethylpyrromethene-BF2 complex] | erratic effect on fluorescence | 554 | 0.70 | 529 | slight bathochromic shift in absorption | 4.89 | 
4 | CC1=C(C)C(C)=[N+]2C1=Cc1c(C)c(C)c(C)n1[B-]2(F)F [Compound 7z, 1,2,3,5,6,7-hexamethylpyrromethene-BF2 complex] | erratic effect on fluorescence | 552 | 0.56 | 528 | slight bathochromic shift in absorption | 4.84 | 
5 | CCC1=C2C(C)=CC(C)=[N+]2[B-](F)(F)n2c(C)cc(C)c21 [III, 4,4-difluoro-1,3,5,7-tetramethyl-8-ethyl-4-bora-3a,4a-diaza-s-indacene] |  |  |  |  |  |  | Eo after 1000 S at 25 J ([5]; footnote to Life, after 1000 S at 25 J): ~ 80 mJ
6 | CCN=c1cc2oc3cc(NCC)c(C)cc3c(-c3ccccc3C(=O)OCC)c-2cc1C [Rhodamine 590, reference compound] |  |  |  |  |  |  | Life ([5]; DMA/MeOH): 15 kJ/L
7 | c1ccc2cc3ccccc3cc2c1 [anthracene, reference compound] |  |  |  |  |  |  | λf ([2]; literature): 400 nm
